{"source": "patent US20170172955A1", "about": "“Treatment of Mixed Dyslipidemia” (priority 2015, published 2017)", "key": {"[1]": {"tested_on": "STAM model of non-alcoholic steatohepatitis (NASH)", "method": "Telmisartan (Micardis®) was purchased from Boehringer Ingelheim GmbH (Germany) and dissolved in pure water.\nTelmisartan was administered at a dose of 10 mg/kg once daily.\nMeasurement of whole blood and plasma biochemistry: Eight-hour fasting blood samples were collected from facial vein at 3 days prior to termination.\nEight-hour fasting blood glucose was measured in whole blood using Life Check (EIDIA Co. Ltd., Japan). For plasma biochemistry, eight-hour fasting blood was collected in polypropylene tubes with anticoagulant (Novo-Heparin, Mochida Pharmaceutical, Japan) and centrifuged at 1,000×g for 15 minutes at 4° C. The supernatant was collected and stored at −80° C. until use. Plasma insulin levels were quantified by Ultra Sensitive Mouse Insulin ELISA kit (Morinaga Institute of Biological Science, Inc., Japan).\nOn the day of termination, non-fasting blood glucose was measured in whole blood using Life Check. For plasma biochemistry, non-fasting blood was collected in polypropylene tubes with anticoagulant (Novo-Heparin) and centrifuged at 1,000×g for 15 minutes at 4° C. The supernatant was collected and stored at −80° C. until use. Plasma ALT, AST, ALP, GGT, BUN, creatinine and total bilirubin levels were measured by FUJI DRI-CHEM 7000 (Fujifilm Corporation, Japan). Plasma ketone body levels were quantified by EnzyChrom™ Ketone Body Assay Kit (BioAssay Systems, USA). […]\nHistological analyses: For HE staining, sections were cut from paraffin blocks of liver tissue prefixed in Bouin's solution and stained with Lillie-Mayer's Hematoxylin (Muto Pure Chemicals Co., Ltd., Japan) and eosin solution (Wako Pure Chemical Industries). […] To visualize collagen deposition, Bouin's fixed liver sections were stained using picro-Sirius red solution (Waldeck, Germany). […]\nStatistical analyses were performed using Bonferroni Multiple Comparison Test on GraphPad Prism 6 (GraphPad Software Inc., USA). […] Results were expressed as mean±SD.\nThe viability, clinical signs and behavior were monitored daily. Body weight was recorded before the treatment. […] The animals were sacrificed by exsanguination through direct cardiac puncture under isoflurane anesthesia (Pfizer Inc.) at 9 weeks of age."}, "plasma fibrinogen": {"tested_on": "plasma fibrinogen", "assay": "Fibrinogen levels in rats (electro immunoassay)", "assay_type": "in vivo, rat", "conditions": "male Sprague-Dawley rats, 100 mg/kg/day oral, 14 days", "method": "Fifty-Six male Sprague-Dawley rats were obtained from Charles River Laboratories. All animals were allowed normal rat chow (Ralston-Purina) and water ad libitum in temperature-controlled rooms, under a 12-hour light, 12-hour dark cycle beginning with lights on at 6 AM. Rats were distributed to 7 groups of 8 rats per group. […] Control animals received vehicle alone. […] CI-719 is gemfibrozil. […] The plasma fibrinogen plasma levels were determined by electro immunoassay. […] Data are shown in FIG. 12 as mean±SEM of as percent of control fibrinogen levels. *p<0.001, two-sided unpaired t-test, compared to control."}, "[2]": {"tested_on": "cholesterol and triglyceride synthesis", "assay": "Inhibition of plasma and hepatic cholesterol and triglyceride synthesis in apoB100/Lp(a) mice", "assay_type": "in vivo, mouse", "method": "The apoB100/Lp(a) (cross of mice transgenic for human apoB100 and human apo(a)) mice) were obtained from Charles River. There were 8 animals per treatment group. […] Mice were acclimated for a minimum of 7 days to a reverse 12 hour light/12 hour dark cycle prior to administration of the first dose of test drug or vehicle. […] Test drugs and vehicle were given once daily. Thirty minutes after the eighth dose, 12.5 μCi [^14C] sodium acetate was administered. […] Individual plasma samples were acquired by placing whole blood samples into EDTA loaded centrifuge tubes and centrifuged. Plasma was transferred to new tubes and stored at −20° C. until assayed for [^14C] labeled cholesterol. Liver samples were flash frozen in liquid nitrogen and stored at −80° C. until assayed for [^14C] labeled cholesterol and triglycerides. Assay for plasma [^14C] labeled cholesterol. […] Additionally, 0.025 μCi […] (Perkin Elmer Life Sciences Inc. Boston, Mass.) was added to each sample, and to 2 or 3 spike controls in 7-mL scintillation vials, as an extraction internal standard. […] Samples were vortexed and saponified at 75° C. for 1 hour. After the samples cooled […] [^14C] labeled cholesterol was extracted with 2.5 mL petroleum ether per sample and shaken for 10 minutes, and then centrifuged for 10 minutes at 0° C. […] Each sample was then dissolved in 0.25 mL of 2 parts chloroform to 1 part per methanol by sonication. Five mL scintillant was added to each sample and the spike controls for direct [^3H] and [^14C] […] per minute (DPM) recording using a Packard 2500TR Tri-Carb Liquid Scintillation Analyzer. […] Assay for liver [^14C] labeled cholesterol and triglycerides. Frozen liver samples were kept on dry ice during sample weighing procedures and assay preparations. Each sample was homogenized in a solution of ice-cold methanol;0.5 N acetic acid. […] Samples were then vortexed and centrifuged for 20 minutes at 3000 rpm at room temperature to separate the phases. The lower chloroform layer was transferred to new vials. The remaining upper aqueous phase was extracted in like manner with 15 mL chloroform 2 more times. […] The aqueous phase was discarded and the chloroform phase was washed 2 times in like manner with 15 mL 1 part methanol to 1 part water, discarding the aqueous phase. The chloroform samples were evaporated under nitrogen gas, and resuspended in 600 μL chloroform and 30 μL removed for scintillation counting. Sample volumes were adjusted for corrected percent recovery and a calculated volume to load based on total liver weight. Calculated volumes were spotted onto TLC plates and dried in an 80° C. oven. After the plates had cooled to room temperature, they were developed in 102 mL isooctane:diethyl ether:glacial acetic acid, 75:25:2, respectively. Plates were dried in an 80° C. oven and allowed to cool to room temperature, wrapped in plastic wrap, and exposed to the phosphorimager screen. Imagequant software was used to quantitate cholesterol and triglyceride bands."}, "[3]": {"conditions": "STAM mice, telmisartan 10 mg/kg PO QD, Day 18, 8 hours of fasting"}, "[4]": {"conditions": "STAM mice, telmisartan 10 mg/kg PO QD, termination (Day 21)"}, "[5]": {"conditions": "telmisartan 10 mg/kg PO QD, n = 7"}, "[6]": {"conditions": "3 mg/kg oral once daily, 8 doses"}}, "data": [{"compound": "CCCc1nc2c(C)cc(-c3nc4ccccc4n3C)cc2n1Cc1ccc(-c2ccccc2C(=O)O)cc1", "note": "[Telmisartan, reference compound]", "values": [{"measurement": "Sirius Red positive area (mean ± SD)", "setting": "[1]; STAM mice, telmisartan 10 mg/kg PO QD 6-9 wks", "value": "0.48 ± 0.09", "unit": "%"}, {"measurement": "NAFLD Activity score, NAS (mean ± SD)", "setting": "[1]; STAM mice, telmisartan 10 mg/kg PO QD 6-9 wks, n = 7", "value": "2.6 ± 1.0"}, {"measurement": "mortality during the treatment period", "setting": "[1]; STAM mice, telmisartan 10 mg/kg PO QD, before reaching Day 21", "value": "one mouse was found dead"}, {"measurement": "Fasting blood glucose (mean ± SD)", "setting": "[1]; [3]", "value": "742 ± 90", "unit": "mg/dL"}, {"measurement": "Plasma insulin (mean ± SD)", "setting": "[1]; [3]", "value": "0.16 ± 0.04", "unit": "ng/mL"}, {"measurement": "Liver hydroxyl-proline (mean ± SD)", "setting": "[1]; [4]", "value": "0.91 ± 0.21", "unit": "μg/mg total protein"}, {"measurement": "Liver triglyceride (mean ± SD)", "setting": "[1]; [4]", "value": "31.7 ± 6.4", "unit": "mg/g liver"}, {"measurement": "Non-fasting blood glucose (mean ± SD)", "setting": "[1]; [4]", "value": "856 ± 62", "unit": "mg/dL"}, {"measurement": "Plasma ALT (mean ± SD)", "setting": "[1]; [4]", "value": "39 ± 15", "unit": "U/L"}, {"measurement": "Plasma AST (mean ± SD)", "setting": "[1]; [4]", "value": "121 ± 38", "unit": "U/L"}, {"measurement": "Plasma ketone body (mean ± SD)", "setting": "[1]; [4]", "value": "8.11 ± 3.27", "unit": "mM"}, {"measurement": "number of mice with Hepatocyte ballooning score 0 (None)", "setting": "[1]; [5]", "value": 2}, {"measurement": "number of mice with Hepatocyte ballooning score 1 (Few balloon cells)", "setting": "[1]; [5]", "value": 4}, {"measurement": "number of mice with Hepatocyte ballooning score 2 (Many cells/prominent ballooning)", "setting": "[1]; [5]", "value": 1}, {"measurement": "number of mice with Lobular inflammation score 0 (No foci)", "setting": "[1]; [5]", "value": 2}, {"measurement": "number of mice with Lobular inflammation score 1 (<2 foci/200x)", "setting": "[1]; [5]", "value": 4}, {"measurement": "number of mice with Lobular inflammation score 2 (2-4 foci/200x)", "setting": "[1]; [5]", "value": 1}, {"measurement": "number of mice with Steatosis score 0 (<5%)", "setting": "[1]; [5]", "value": 1}, {"measurement": "number of mice with Steatosis score 1 (5-33%)", "setting": "[1]; [5]", "value": 6}]}, {"compound": "Cc1ccc(C)c(OCCCC(C)(C)C(=O)O)c1", "note": "[Gemfibrozil, gemfibrozil, reference compound]", "values": [{"measurement": "reduction in plasma fibrinogen levels compared with control", "setting": "plasma fibrinogen", "value": 31, "unit": "%"}]}, {"compound": "CCC(C)(C)C(=O)O[C@H]1C[C@@H](C)C=C2C=C[C@H](C)[C@H](CC[C@@H]3C[C@@H](O)CC(=O)O3)[C@H]21", "note": "[Simvastatin, simvastatin, reference compound]", "values": [{"measurement": "inhibition of cholesterol synthesis as measured in plasma", "setting": "[2]; 3 mg/kg", "value": 59, "unit": "%"}, {"measurement": "lowering of cholesterol synthesis in liver tissue", "setting": "[2]; 3 mg/kg", "value": 82, "unit": "%"}, {"measurement": "hepatic Cholesterol synthesis ([14C] sodium acetate), % Change from Vehicle", "setting": "[2]; [6]", "value": "−82 ± 8", "unit": "%"}, {"measurement": "hepatic Triglycerides synthesis ([14C] sodium acetate), % Change from Vehicle", "setting": "[2]; [6]", "value": "4.0 ± 15", "unit": "%"}]}]}
